Test results reported in patent EP0942911B1, “BENZOPYRANOPYRROLE AND BENZOPYRANOPYRIDINE ALPHA-1 ADRENERGIC COMPOUNDS” (Abbott Laboratories, priority 1996, dated 1998).
Where a name gives a salt, the structure may show the parent alone.

Legend:
α-1B adrenoreceptor [1] = molecular target: T1, α-1B adrenoreceptor (Rattus norvegicus, UniProt P15823); assay: cell-based; settings: phenylephrine-induced contraction; Schild plot
T1 construct: from tissue; host or cells: rat spleen
T1 sequence (P15823 1-515): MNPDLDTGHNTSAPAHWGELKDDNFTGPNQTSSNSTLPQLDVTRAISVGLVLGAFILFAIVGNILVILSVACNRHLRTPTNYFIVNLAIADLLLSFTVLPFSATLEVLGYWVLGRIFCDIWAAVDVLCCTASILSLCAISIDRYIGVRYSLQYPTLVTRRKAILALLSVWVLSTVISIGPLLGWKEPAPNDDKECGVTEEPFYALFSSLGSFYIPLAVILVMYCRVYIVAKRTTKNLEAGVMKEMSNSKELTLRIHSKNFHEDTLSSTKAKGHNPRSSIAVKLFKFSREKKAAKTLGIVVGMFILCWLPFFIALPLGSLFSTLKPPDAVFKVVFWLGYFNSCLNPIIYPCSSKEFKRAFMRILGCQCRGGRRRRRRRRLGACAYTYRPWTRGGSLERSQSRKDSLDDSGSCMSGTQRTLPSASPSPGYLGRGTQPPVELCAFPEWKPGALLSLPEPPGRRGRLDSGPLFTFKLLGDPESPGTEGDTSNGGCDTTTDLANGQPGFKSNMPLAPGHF
Source text: (§1) Functional assays indicative of pharmacologically defined α-1 adrenoreceptors were used to further characterize compounds. Inhibition of phenylephrine (PE)-induced contraction of canine prostate smooth muscle can be correlated with α-1A adrenoreceptor activation. […] For each of these models, agonist dose response curves were repeated against increasing concentrations of test agent to derive a Schild plot [log ([…]) against log (molarity of test agent)] to determine the pA2.

α-1 Adrenoceptors = assay: Functional antagonism in rat aorta (method not described); assay type: cell-based
α-1d adrenoreceptor = molecular target: T2, α-1d adrenoreceptor (Rattus norvegicus, UniProt P23944); assay: biochemical; assay type: binding; settings: [3H]-prazosin radioligand; cloned receptor in LTK cell membranes; read-out: Radioligand Binding (Ki, nM) 1d (Rat)
T2 sequence (P23944 1-561): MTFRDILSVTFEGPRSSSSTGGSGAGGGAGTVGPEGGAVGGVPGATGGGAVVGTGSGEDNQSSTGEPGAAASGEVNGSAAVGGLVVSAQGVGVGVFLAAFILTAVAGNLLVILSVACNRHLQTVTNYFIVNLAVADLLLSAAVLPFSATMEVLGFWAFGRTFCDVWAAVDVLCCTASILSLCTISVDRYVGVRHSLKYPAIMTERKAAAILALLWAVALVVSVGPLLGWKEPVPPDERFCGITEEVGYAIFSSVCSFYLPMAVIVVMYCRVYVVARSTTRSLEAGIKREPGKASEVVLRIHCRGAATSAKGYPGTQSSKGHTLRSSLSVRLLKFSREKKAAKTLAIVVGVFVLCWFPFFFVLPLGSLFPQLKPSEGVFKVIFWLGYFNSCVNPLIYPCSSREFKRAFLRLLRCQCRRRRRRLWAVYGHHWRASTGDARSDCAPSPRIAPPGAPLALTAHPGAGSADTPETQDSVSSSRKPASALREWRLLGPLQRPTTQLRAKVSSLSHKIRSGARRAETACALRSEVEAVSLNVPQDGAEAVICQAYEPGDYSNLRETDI
How it was run: (§2)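 Membranes were prepared from high-density single-cell clones of transfected LTK cells, plus rat submaxillary gland for the α-1A site. Binding was measured by radioligand displacement with scintillation counting.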

α-1a adrenoreceptor [2] = molecular target: T3, α-1a adrenoreceptor (Bos taurus, UniProt P18130); assay: biochemical; assay type: binding, bovine; settings: [3H]-prazosin radioligand; cloned receptor in LTK cell membranes; read-out: Radioligand Binding (Ki, nM) 1a (Bovine)
T3 sequence (P18130 1-466): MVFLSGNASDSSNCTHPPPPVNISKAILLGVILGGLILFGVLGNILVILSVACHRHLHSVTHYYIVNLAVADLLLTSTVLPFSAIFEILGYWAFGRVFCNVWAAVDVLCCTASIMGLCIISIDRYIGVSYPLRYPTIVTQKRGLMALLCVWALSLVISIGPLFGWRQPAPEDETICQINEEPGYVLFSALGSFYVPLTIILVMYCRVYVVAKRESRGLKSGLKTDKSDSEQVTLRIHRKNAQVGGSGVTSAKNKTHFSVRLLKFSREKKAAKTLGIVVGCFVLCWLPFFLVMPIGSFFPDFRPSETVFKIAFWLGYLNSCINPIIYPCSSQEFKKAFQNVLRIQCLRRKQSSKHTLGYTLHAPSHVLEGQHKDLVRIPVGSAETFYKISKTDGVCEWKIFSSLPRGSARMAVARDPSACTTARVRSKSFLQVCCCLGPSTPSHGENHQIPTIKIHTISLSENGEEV
How it was run: as §2

α-1A adrenoreceptor [3] = assay: Functional antagonism: inhibition of PE-induced contraction of canine prostate strips (Schild plot); assay type: cell-based; settings: phenylephrine-induced contraction
Source text: Canine prostate strips were used in vitro as previously described (Hieble, J.P., Boyce, A.J. and Caine, M., Fed. Proc., 45: 2609-2614 (1986)), to determine antagonist potencies against phenylephrine-induced contractions.
as §1

α-1b adrenoreceptor [4] = molecular target: T4, α-1b adrenoreceptor (Mesocricetus auratus, UniProt P18841); assay: biochemical; assay type: binding, hamster; settings: [3H]-prazosin radioligand; cloned receptor in LTK cell membranes; read-out: Radioligand Binding (Ki, nM) 1b (Hamster)
T4 sequence (P18841 1-515): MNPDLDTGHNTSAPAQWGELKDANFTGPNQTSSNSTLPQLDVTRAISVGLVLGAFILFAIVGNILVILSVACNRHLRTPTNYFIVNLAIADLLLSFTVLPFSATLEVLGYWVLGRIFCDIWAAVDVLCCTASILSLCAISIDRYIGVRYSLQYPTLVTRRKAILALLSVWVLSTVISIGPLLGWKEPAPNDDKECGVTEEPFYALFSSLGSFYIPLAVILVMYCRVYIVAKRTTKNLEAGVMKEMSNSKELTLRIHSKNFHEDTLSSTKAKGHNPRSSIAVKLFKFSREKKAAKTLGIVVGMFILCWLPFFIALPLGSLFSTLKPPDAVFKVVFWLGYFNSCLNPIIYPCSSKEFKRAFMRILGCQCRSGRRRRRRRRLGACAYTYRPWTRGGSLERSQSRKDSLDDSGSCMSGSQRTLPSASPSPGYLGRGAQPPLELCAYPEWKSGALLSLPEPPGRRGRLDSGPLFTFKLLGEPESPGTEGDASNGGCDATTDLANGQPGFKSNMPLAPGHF
How it was run: as §2

[5] = molecular target: T5, α-1A adrenoreceptor (rat submaxillary gland) (Rattus norvegicus, UniProt P43140); assay: biochemical; assay type: binding; settings: [3H]-prazosin radioligand; rat submaxillary gland membranes; read-out: Radioligand Binding (Ki, nM) 1A (Rat)
T5 sequence (P43140 1-466): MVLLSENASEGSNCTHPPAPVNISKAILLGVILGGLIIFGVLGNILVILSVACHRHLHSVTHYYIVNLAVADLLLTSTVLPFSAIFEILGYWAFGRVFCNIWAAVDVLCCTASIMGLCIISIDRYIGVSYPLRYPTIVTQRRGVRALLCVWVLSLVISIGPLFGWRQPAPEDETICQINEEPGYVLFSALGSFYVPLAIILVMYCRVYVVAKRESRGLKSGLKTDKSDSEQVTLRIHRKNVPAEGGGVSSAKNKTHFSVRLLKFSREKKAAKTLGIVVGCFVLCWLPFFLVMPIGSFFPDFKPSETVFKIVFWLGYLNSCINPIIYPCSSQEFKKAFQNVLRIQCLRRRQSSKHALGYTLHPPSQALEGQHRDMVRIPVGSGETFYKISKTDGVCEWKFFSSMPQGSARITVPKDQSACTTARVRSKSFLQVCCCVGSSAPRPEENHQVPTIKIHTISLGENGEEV
How it was run: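 Membranes were prepared from rat submaxillary glands as the α-1A adrenoreceptor source. Competition binding followed Greengrass and Bremner, with bound radioligand measured by scintillation counting.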

Row | Compound | In Vitro Characterization (pA2) Rat Spleen (α-1B adrenoreceptor [1]) | In Vitro Characterization (pA2) Rat Aorta (α-1 Adrenoceptors) | Ki (α-1d adrenoreceptor) [nM] | Ki (α-1a adrenoreceptor [2]) [nM] | In Vitro Characterization (pA2) Dog Prostate (α-1A adrenoreceptor [3]) | Ki (α-1b adrenoreceptor [4]) [nM] | Ki [5] [nM]
1 | COc1cc2nc(N3CCN(C(=O)C4CCCO4)CC3)nc(N)c2cc1OC (stereo not drawn) [Terazosin, terazosin, reference compound] | 8.60 | 8.65 | 0.689 | 3.31 |  |  | 
2 | COc1cccc2c1[C@@H]1CCN(CCCCn3c(=O)[nH]c4c(sc5cccnc54)c3=O)C[C@H]1CO2 (racemic) [Example 88, 3-[4-((±)-trans-10-Methoxy-1,3,4,4a,5,10b-hexahydro-2H-[1]-benzopyrano[3,4-c]pyrido-3-yl)butyl]-pyrido[2',3':4,5]thieno[3,2-d]pyrimidine-2,4(1H,3H)-dione hydrochloride] |  |  |  |  | 8.09 |  | 
3 | COc1cccc2c1[C@@H]1CN(CCCCn3c(=O)[nH]c4c(sc5nc(Cl)ccc54)c3=O)C[C@@H]1CO2 [Example 32, 3-[4-((3aR,9bR)-cis-9-Methoxy-1,2,3,3a,4,9b-hexahydro-[1]-benzopyrano[3,4-c]pyrrol-2-yl)butyl]-7-chloro-pyrido[3',2':4,5]thieno[3,2-d]pyrimidine-2,4(1H,3H)-dione hydrochloride] |  | 9.31 | 0.86 |  |  |  | 
4 | COc1ccc2sc3c(=O)n(CCCCN4CC[C@H]5c6c(OC)cccc6OC[C@@H]5C4)c(=O)[nH]c3c2n1 [Example 98, 3-[4-((4aS,10bR)-trans-10-Methoxy-1,3,4,4a,5,10b-hexahydro-2H-[1]-benzopyrano[3,4-c]pyrido-3-yl)butyl]-8-methoxy-pyrido[2',3':4,5]thieno[3,2-d]pyrimidine-2,4(1H,3H)-dione hydrochloride] |  |  | 0.324 | 0.121 |  | 2.65 | 1.02
5 | COc1cccc2c1[C@@H]1CN(CCCCn3c(=O)[nH]c4c(sc5ncc(-c6ccsc6)nc54)c3=O)C[C@@H]1CO2 [Example 57, 3-[4-((3aR,9bR)-cis-9-Methoxy-1,2,3,3a,4,9b-hexahydro-[1]-benzopyrano[3,4-c]pyrrol-2-yl)butyl]-8-(3-thienyl)-pyrazino[2',3':4,5]thieno[3,2-d]pyrimidine-2,4(1H,3H)-dione dihydrochloride] |  |  | 0.507 | 0.078 |  | 19.3 | 0.682
